This is an account of results in patent publication US20240051978A1, “3-CYCLIC AMINE-INDOLE DERIVATIVES AS SEROTONERGIC AGENTS FOR THE TREATMENT OF CNS DISORDERS” (MINDSET PHARMA INC., priority 2020, published 2024).

What is called CLint scaled is a measure of how fast metabolising enzymes remove a compound, apart from limits set by blood flow. Higher therefore signals rapid turnover. By half-life is commonly meant the time in which the quantity being followed falls by half. The term microsomal CLint denotes the rate of metabolic loss divided by the concentration. In general, IC50 refers to the concentration that gives 50% inhibition. The EC50 is the concentration that produces a half-maximal response.

Like-named read-outs stand apart in the source and are kept apart here.

The conditions of data set [1]: cited from earlier work.
Data set [2] is described as follows: Liver microsomes stability, mouse. The conditions noted are these: for Predicted hepatic CL: Mouse liver microsomes, with NADPH; for Remaining Percentage (%) 0 min / Remaining Percentage (%) 60 min: Mouse; for CLint scaled at 2 μM / half-life at 2 μM / microsomal CLint at 2 μM: male, mouse, microsomes. As for the experimental part: (§1) The objective of this study was to estimate in vitro metabolic stability of 1-12 in pooled human and male mouse liver microsomes. The concentrations of parent compounds in reaction systems were evaluated by LC-MS/MS for estimating the stability in pooled human and male mouse liver microsomes. The in vitro intrinsic clearances of test compounds were determined as well.
(§2) A master solution in the “Incubation Plate” containing phosphate buffer, ultra-pure H2O, MgCl2 solution and liver microsomes was made according to Table 3. The mixture was pre-warmed at 37° C. water bath for 5 minutes.
(§3) 40 μL of 10 mM NADPH solution was added to each well. The final concentration of NADPH was 1 mM. The negative control samples were prepared by replacing NADPH with 40 μL of ultra-pure H2O. Samples were prepared in duplicate. Negative controls were prepared in singlet.
(§4) The reaction was started with the addition of 4 μL of 200 μM exemplary test compounds or control compounds to each master solution to get the final concentration of 2 μM. This study was performed in duplicate.
(§5) Aliquots of 50 μL were taken from the reaction solution at 0, 15, 30, 45 and 60 minutes. The reaction solutions were stopped by the addition of 4 volumes of cold methanol with IS (100 nM alprazolam, 200 nM imipramine, 200 nM labetalol and 2 μM ketoprofen). Samples were centrifuged at 3,220 g for 40 minutes. Aliquot of 90 μL of the supernatant was mixed with 90 μL of ultra-pure H2O and then was used for LC-MS/MS analysis.
(§6) LC/MS analysis was performed for all samples from this study using a Shimadzu liquid chromatograph separation system equipped with degasser DUG-20A5R; solvent delivery unit LC-30AD; system controller SIL-30AC; column oven CTO-30A; CTC Analytics HTC PAL System; Mass spectrometric analysis was performed using an Triple Quad™ 5500 instrument.
(§7) All calculations were carried out using Microsoft Excel. Peak area ratios of test compound to internal standard (listed in the below table) were determined from extracted ion chromatograms.
(§8) All calculations were carried out using Microsoft Excel. Peak areas were determined from extracted ion chromatograms. The slope value, k, was determined by linear regression of the natural logarithm of the remaining percentage of the parent drug vs. incubation time curve.
(§9) The in vitro half-life (in vitro t½) was determined from the slope value:
(§10) Conversion of the in vitro t½ (min) into the in vitro intrinsic clearance (in vitro CLint, in μL/min/mg proteins) was done using the following equation (mean of duplicate determinations): […]

Data set [3] is described as follows: Liver microsomes stability, rat. The following applies: for Predicted hepatic CL: Rat liver microsomes, with NADPH; for Remaining Percentage (%) 0 min / Remaining Percentage (%) 60 min: Rat; for CLint scaled at 2 μM / half-life at 2 μM / microsomal CLint at 2 μM: rat, microsomes. As for the experimental part: as §1, §2, §3, §4, §5, §6, §7, §8, §9, §10
A further data set addresses human 5-HT2A receptor (Homo sapiens (Human), UniProt P28223). The data set is described as follows: Radioligand binding assay ([3H]-ketanserin) on human 5-HT2A receptor. The following applies: [3H]-ketanserin competition; read-out: h5-HT2A IC50. The method, then: • i. The assay buffer was prepared following the table below;
• ii. 8 doses of reference and exemplary test compounds were prepared starting from 10 mM stock solution as requested by 5-fold serial dilutions with 100%; • iii. (v/v) DMSO was prepared: a. 50 μl/well of 0.5% (v/v) PEI was added to UniFilter-96 GF/B plates. The plates were sealed and incubates at 4° C. for 3 hrs; b. After incubation, the plates were washed 3 times with ice-cold wash buffer (50 mM Tris, pH7.4); • iv. Preparation of assay plates: a. Cell membrane was diluted with assay buffer and 330 μl/well was added to 96 round deep well plates to reach a concentration of 20 μg/well; b. 8 concentrations of reference or exemplary test compounds were prepared and added 110 μl/well to 96 round deep well plates; c. [3H]-ketanserin was diluted with assay buffer to 5 nM (5× final concentration) and added 110 μl/well to 96 round deep well plates. • v. The plate were centrifuged at 1000 rpm for 30 secs and then agitated at 600 rpm, R.T. for 5 min. • vi. The plates were sealed and incubated at 27° C. for 90 min. • vii. The incubation was stopped by vacuum filtration onto GF/B filter plates followed by 4 times washing with ice-cold wash buffer (50 mM Tris, pH7.4). • vii. […] The filter plates were sealed and 40 μl/well of scintillation cocktail added. • x. The plate was read by using a Microbeta2 microplate counter.
For reference and exemplary test compounds, the results are expressed as % Inhibition, using the normalization equation: N=100−100×(U−C2)/(C1−C2), where U is the unknown value, C1 is the average of high controls, and C2 is the average of low controls. The IC50 was determined by fitting percentage of inhibition as a function of compound concentrations with Hill equation using XLfit.

For data set [4], the target named is human 5-HT2A (h5-HT2A) receptor (Homo sapiens (Human), UniProt P28223). The data set can be described thus: FLIPR assay, human 5-HT2A receptor under agonist mode. In kind it is cell-based. The following applies: FLIPR calcium. As for the experimental part:
I. Assessment of the Activated Effect of Exemplary Compounds of Formula I Targeting on Human 5-HT2A (h5-HT2A) Receptor Under Agonist Mode:
1. the Cells were cultured in cell culture medium (DMEM containing 10% FBS 1×penicillin-streptomycin 300 μg/ml G418 and 100 μg/ml hygromycin B) at 37° C., 5% (v/v) CO2.
2. One day before the assays, the cells were detached using TrypLE™ Express and cells were counted using cell counter.
3. 20000 cells/well were seeded in 30 μl/well culture medium to a 384-well cell plate and the cells were incubated overnight at 37° C., 5% (v/v) CO2.
4. On the assay day, 2× dye solution was prepared following the manual of the FLIPR® Calcium 6 Assay Kit: i. The dye was diluted with assay buffer(20 mM HEPES in 1×HBSS, PH7.4); ii. Probenecid was added to the final concentration of 5 mM; iii. Vortex vigorously for 1-2 minutes.
5. Medium was removed from cell plate by flicking the cell plate on towel papers.
6. 10 μl of assay buffer and 10 μl of 2× dye solution was added to each well of the cell plate.
7. The cell plate was placed on plate shaker, and the plate was agitated at 600 rpm for 2 minutes. The plate was incubated at 37° C. for 2 hours followed by additional 15-minute incubation at 25° C.
8. 3× compound in assay buffer was prepared: a. reference compounds were diluted to required concentration with DMSO. Compounds were added to a 384-well compound plate; b. Serial dilutions were performed; c. 10 mM test compounds were added to the compound plate, 3-fold serial dilutions were performed. d. […] 20 μl/well assay buffer was added to the compound plate; f. The plate was mixed on plate shaker for 2 mins;
i. The normalized fluorescence reading (RFU) was calculated as shown below, wherein Fmax and Fmin stand for maximum and minimum of calcium signal during defined time window: RFU=Fmax−Fmin
ii. The percentage activation was calculated by using following equation: […]
iii. EC50 was calculated by fitting % activation against log of compound concentrations with Hill equation using XLfit.

Data set [5] can be described thus: Liver microsomes stability, human. The following applies: for Predicted hepatic CL: Human liver microsomes, with NADPH; for Remaining Percentage (%) 0 min / Remaining Percentage (%) 60 min: Human; for CLint scaled at 2 μM / half-life at 2 μM / microsomal CLint at 2 μM: human, microsomes. As for the experimental part: as §1, §2, §3, §4, §5, §6, §7, §8, §9, §10

As to `CN(C)CCc1c[nH]c2cccc(OP(=O)(O)O)c12` [Psilocybin, 4-phosphoryloxy-N,N-dimethyltrypatmine], the abstinence rate in data set [1] (12 months follow-up) was 67%; in data set [1] (six months follow-up) it was 80%.

In the case of `[2H]C([2H])N1CCC(c2c[nH]c3cccc(O)c23)C1` (centres unmarked) [Compound I-32, 3-(1-(methyl-d2)pyrrolidin-3-yl)-1H-indol-4-ol], the entries for the “Predicted hepatic CL” value in data set [2], in data set [3] and in data set [5] were 18.85 mL/min/kg, 0.96 mL/min/kg and 3.99 mL/min/kg, respectively. Also, the “Remaining Percentage (%) 0 min” value in data set [2] (With NADPH), in data set [2] (Without NADPH), in data set [3] (With NADPH), in data set [3] (Without NADPH), in data set [5] (With NADPH) and in data set [5] (Without NADPH) was 100.00% throughout. Also, the “Remaining Percentage (%) 60 min” value in data set [2] (With NADPH) is reported as 84.91%; in data set [2] (Without NADPH), 116.03%; in data set [3] (With NADPH), 98.37%; in data set [3] (Without NADPH), 92.79%; in data set [5] (With NADPH), 88.84%; in data set [5] (Without NADPH) it was 96.34%. Further, the intrinsic clearance (CLint scaled) at 2 μM in data set [2] came to 23.9 mL/min/kg; in data set [3], 0.98 mL/min/kg; in data set [5] it was 4.95 mL/min/kg. Also, the half-life at 2 μM in data set [2] amounted to 4.24 h; in data set [3] it was 42.2 h; in data set [5] it was 5.86 h. Also, the intrinsic clearance (microsomal CLint) at 2 μM in data set [2] came out at 5.45 µL/min/mg; in data set [3], 0.55 µL/min/mg; in data set [5], 3.94 µL/min/mg. Besides, the half-maximal inhibitory concentration (IC50) at human 5-HT2A receptor was 1000 to 10000 nM. Also, the EC50 in data set [4] is below 1000 nM.

As for `[2H]C1([2H])CC(c2c[nH]c3cccc(O)c23)C([2H])([2H])N1C` (centres unmarked) [Compound I-34, 3-(1-methylpyrrolidin-3-yl-2,2,5,5-d4)-1H-indol-4-ol], the “Predicted hepatic CL” value in data set [2] is 38.03 mL/min/kg; in data set [3], 23.24 mL/min/kg; in data set [5], 4.02 mL/min/kg. Also, the “Remaining Percentage (%) 0 min” value in data set [2] (With NADPH), in data set [2] (Without NADPH), in data set [3] (With NADPH), in data set [3] (Without NADPH), in data set [5] (With NADPH) and in data set [5] (Without NADPH) was 100.00% each time. In addition, the “Remaining Percentage (%) 60 min” value in data set [2] (With NADPH) is recorded as 63.66%; in data set [2] (Without NADPH), 96.60%; in data set [3] (With NADPH), 51.06%; in data set [3] (Without NADPH), 85.53%; in data set [5] (With NADPH), 88.74%; in data set [5] (Without NADPH), 80.14%. Further, the CLint scaled at 2 μM is 65.9 mL/min/kg in data set [2], 40.1 mL/min/kg in data set [3] and 4.99 mL/min/kg in data set [5]. In addition, the half-life at 2 μM in data set [2] came out at 1.53 h; in data set [3], 1.03 h; in data set [5], 5.8 h. In addition, the microsomal CLint at 2 μM in data set [2] is 15.1 µL/min/mg; in data set [3] it was 22.4 µL/min/mg; in data set [5] it was 3.98 µL/min/mg. Besides, the half-maximal inhibitory concentration (IC50) on human 5-HT2A receptor lay within 1000 to 10000 nM. In addition, the EC50 in data set [4] is below 1000 nM.

`[2H]C1([2H])CC(c2c[nH]c3cccc(OCc4ccccc4)c23)C([2H])([2H])N1C` (single isomer, unassigned) [Compound I-37, 4-(benzyloxy)-3-(1-methylpyrrolidin-3-yl-2,2,5,5-d4)-1H-indole]: the results for the “Predicted hepatic CL” value in data set [2], in data set [3] and in data set [5] were 55.10 mL/min/kg, 26.15 mL/min/kg and 9.50 mL/min/kg, respectively. The “Remaining Percentage (%) 0 min” value in data set [2] (With NADPH), in data set [2] (Without NADPH), in data set [3] (With NADPH), in data set [3] (Without NADPH), in data set [5] (With NADPH) and in data set [5] (Without NADPH) was 100.00% in each case. For the same compound, the “Remaining Percentage (%) 60 min” value in data set [2] (With NADPH) was determined as 37.75%; in data set [2] (Without NADPH) it was 93.26%; in data set [3] (With NADPH), 43.53%; in data set [3] (Without NADPH) it was 101.84%; in data set [5] (With NADPH), 65.70%; in data set [5] (Without NADPH) it was 99.55%. Besides, the intrinsic metabolic clearance (CLint scaled) at 2 μM was found to be 142 mL/min/kg in data set [2], 49.7 mL/min/kg in data set [3] and 17.6 mL/min/kg in data set [5]. In addition, the half-life at 2 μM came out at 0.711 h in data set [2], 0.833 h in data set [3] and 1.65 h in data set [5]. In addition, the intrinsic metabolic clearance (microsomal CLint) at 2 μM in data set [2] turned out to be 32.5 µL/min/mg; in data set [3], 27.7 µL/min/mg; in data set [5], 14 µL/min/mg. In addition, the 50% inhibitory concentration (IC50) on human 5-HT2A receptor was below 1000 nM. Besides, the EC50 in data set [4] was above 10000 nM.
